Patent publication EP0229718A2, “Labelling blood cells” (AMERSHAM INTERNATIONAL plc, priority 1986, dated 1987)

Key:
[1] = system: "mixed" leucocyte suspension; test: In vitro labelling of a mixed leucocyte suspension from patients (Example 6); format: cell-based
Procedure: (§1) Hexamethylpropylene-amineoxime (HMPAO) forms a lipid-soluble neutral complex with ^99mTc which is rapidly incorporated into leucocytes in vitro. In six patients with suspected or known inflammatory disease, a "mixed" leucocyte suspension isolated from 85 ml blood anticoagulated with acid-citrate-dextrose was labelled by ^99mTc-HMPAO with a mean efficiency of 47%, of which 78% was taken up by granulocytes. […] Four patients also received ¹¹¹In-labelled "pure" granulocytes.
(§2) This experiment is described in more detail in The Lancet, October 25 1986, pages 946-949.

[2] = system: inflammatory disease; test: Imaging of inflammatory disease in patients with labelled leucocytes (Example 6); format: in vivo
Procedure: as §1, §2

granulocyte recovery in blood ([2]; at 30-40 min, mean): 32%
Compound: C/C(=N\[O-])[C@@H](C)[N-]CC(C)(C)C[N-][C@H](C)/C(C)=N/O.[O]=[99Tc+3] (racemic) [^99mTc-HMPAO]
retention of label in granulocytes in vitro ([1]; elution compared with other cell types): remained firmly labelled
share of the label taken up by granulocytes ([1]; of the cell-bound label): 78%
mean labelling efficiency ([1]; six patients, leucocytes from 85 ml blood anticoagulated with acid-citrate-dextrose): 47%
image detail compared with ¹¹¹In-labelled "pure" granulocytes ([2]; four patients also received ¹¹¹In-labelled granulocytes): comparable or superior to the ¹¹¹In images
detection of inflammatory disease by imaging ([2]; six patients, from 30 min (five patients) or 3 h (sixth), remained positive at 20-24 h): All six patients were positive for inflammatory disease
